Several values for one entry are separate records, joined by “and”; a condition that tells them apart may be missing. Equal entries are not always repeated.
What was measured:
[1] = UV-vis absorption and emission measurements in aqueous buffer; type: physicochemical; conditions: for molar extinction coefficient: PBS, glutathione 2 mM, PEG-400 40% v/v
Protocol: (§1) UV-vis absorption and emission measurements. FCP-1 stock solution in DMSO (5 mM) was prepared, aliquoted and stored at […]. For each spectroscopic measurement, a fresh aliquot was diluted to 500 μM by DMSO and further diluted with PBS containing 2 mM GSH/PEG-400 mixture (3:2, v/v) to prepare the sensing solution with 5 μM of FCP-1. The sensing solution was pre-incubated in a water bath at 37° C., and then [Cu(CH3CN)](PF6) in MeCN or other metal ions in H2O was added. The solution mixture was kept at 37° C. and taken out for UV-vis absorption or emission spectroscopic measurements in quartz cuvette at predetermined time intervals. Emission spectra were corrected using coumarin 153 as secondary emission standard (4). Photoluminescence quantum yield (PLQY) was determined using fluorescein in 0.1 M NaOH solution (0.95; λex=496 nm). FRET efficiency from the fluorescein moiety to rhodamine moiety of FCP-1 was estimated by [1−(PLQY of FCP-1/PLQY of FL-TPA)].
FCP-1 in PBS buffer containing glutathione (2 mM) and PEG-400 (40%, v/v) was evaluated. […] The first two absorption maxima corresponded to the absorption of the fluorescein moiety, as similar absorption maxima at 460 and 489 nm were found in the absorption spectra of FL-TPA (FIG. 4), whereas the lowest energy absorption at 552 nm originated from the rhodamine moiety (FIG. 4). […] Together with the significant contribution of the lower-energy fluorescence from the excitation at 450-500 nm, which is in the region of FL-TPA absorption (FIG. 6), the data support the occurrence of FRET from the fluorescein donor to the rhodamine acceptor. Using FL-TPA as a reference FRET donor compound (FIG. 7) with assumption that quenching of donor fluorescence originated only from the FRET process, the FRET efficiency in the FCP-1 cassette is estimated to be 84%.

[2] = Ratiometric fluorescence response (F526/F576) to Cu(I) in aqueous buffer
Protocol: as §1
The ratiometric fluorescence change of FCP-1 at 526 and 576 nm (F526/F576) was rapid and reached saturation after ca. 30 min in the presence of a two-fold excess of Cu(I) (10 μM).

[3] = FCP-1 5 μM, Cu(I) 10 μM, over time, λex 458 nm

- FRET efficiency ([1]; FL-TPA as reference FRET donor, 1−(PLQY of FCP-1/PLQY of FL-TPA)): 84%
- absorption maxima ([1]; PBS buffer containing glutathione (2 mM) and PEG-400 (40%, v/v)): 465 nm and 493 nm and 552 nm
- molar extinction coefficient ([1]; at 465 nm): 20,000 M^−1 cm^−1
- molar extinction coefficient ([1]; at 493 nm): 22,100 M^−1 cm^−1
- molar extinction coefficient ([1]; at 552 nm): 40,000 M^−1 cm^−1
- emission wavelength ([1]; photoexcitation at 458 nm): 526 nm and 576 nm
Compound: CC[N+](CC)=c1ccc2c(-c3ccccc3C(=O)O)c3ccc(N4CCN(Cc5cccc(CN(Cc6ccccn6)Cc6cccc(COc7ccc8c(-c9ccccc9C(=O)OC)c9ccc(=O)cc-9oc8c7)n6)n5)CC4)cc3oc-2c1 [FCP-1]
- F526/F576 ratio with Cu(I) at different GSH concentrations ([2]; FCP-1 5 μM, Cu(I) 10 μM, 15 min, PBS with 40 vol % PEG-400): higher F526/F576 ratios at lower GSH concentrations
- fluorescein emission at 526 nm upon addition of Cu(I) [2, 3]: increase in fluorescein emission at 526 nm
- rhodamine fluorescence at 576 nm upon addition of Cu(I) [2, 3]: drop in rhodamine fluorescence at 576 nm
- total fluorescence at higher probe concentrations ([2]; aqueous buffer, λex 458 nm (FIG. 8)): less fluorescent at higher concentrations
- time to saturation of ratiometric fluorescence change F526/F576 ([2]; two-fold excess of Cu(I) (10 μM)): ca. 30 min

Source: US12241902B2, “Probes for detection of copper” (The Regents of the University of California, priority 2019, dated 2025)
